# Several values for one entry are separate records, joined by “and”; a condition that tells them apart may be missing. Equal values may be shown once.
# Molecular target: T1, Replicase polyprotein 1ab (Severe acute respiratory syndrome coronavirus 2, UniProt P0DTD1)
# Assay: Functional biochemical assay to identify treatments for viral infectious disease that targets SARS-COV-2 nsp3 macrodomain, whereby the mechanism of action displaces an ADP-Ribose modified peptide from the binding site. Utilizing a time-resolved fluorescence method to measure binding by reading the emitted fluorescence intensity in two wavelengths.
row,SMILES,IC50
1,C[C@H](C(=O)O)[C@@H](NC(=O)c1ncnc2[nH]ccc12)c1ccc(Br)cc1,794 nM and 622 nM and 340 nM
2,CC(C)(C)[C@@H](Nc1ncnc2[nH]c(-c3cnn(CC(N)=O)c3)cc12)c1ccc2c(n1)OCCO2,82 nM and 64 nM and 54 nM
3,CC(C)[C@H](Nc1ncnc2[nH]c(-c3cnn(C)c3C#N)cc12)c1ccc2c(n1)OCCO2,19300 nM and 19100 nM and 30800 nM and 19000 nM
4,CNC(=O)c1c[nH]c2ncnc(N[C@H](c3ccc4c(c3)S(=O)(=O)CCC4)C(C)C)c12,120 nM and 110 nM
5,CC(C)[C@@H](Nc1ncnc2[nH]ccc12)c1ccc2c(c1)NC(=O)CO2,700 nM and 722 nM and 396 nM and 378 nM
6,CNCc1cc(-c2cc3c(N[C@@H](c4ccc5c(c4)S(=O)(=O)CCC5)C(C)C)ncnc3[nH]2)co1,25 nM and 41 nM and 22 nM and 19 nM (2×) and 12 nM
7,CC(C)[C@@H](Nc1ncnc2[nH]c(-c3cnn(C)c3C#N)cc12)c1ccc2c(n1)OCCO2,68 nM and 74 nM and 40 nM and 29 nM and 59 nM and 67 nM
8,CC(C)[C@@H](Nc1ncnc2[nH]c(-c3cnn(C)c3)cc12)c1ccc2c(c1)S(=O)(=O)CCC2,36 nM and 54 nM and 19 nM and 34 nM (2×) and 17 nM and 29 nM and 27 nM and 35 nM and 15 nM
9,CNC(=O)Cn1cc(-c2cc3c(N[C@@H](c4ccc5c(c4)S(=O)(=O)CCC5)C(C)C)ncnc3[nH]2)cn1,35 nM and 19 nM and 30 nM and 18 nM and 16 nM and 15 nM and 10 nM
10,Cc1nn(C)cc1-c1cc2c(N[C@H](c3ccc4c(c3)S(=O)(=O)CCC4)C(C)C)ncnc2[nH]1,28 nM (3×) and 14 nM and 32 nM and 13 nM and 24 nM and 36 nM and 12 nM and 11 nM
11,CC(C)[C@H](Nc1ncnc2[nH]ccc12)c1ccc2c(c1)S(=O)(=O)CCC2,93 nM and 138 nM and 85 nM
12,COc1ccc([C@H](Cc2nnn[nH]2)NC(=O)c2ncnc3[nH]ccc23)cc1,349 nM and 319 nM
13,Cn1ncc(-c2cc3c(N[C@@H](c4ccc5c(n4)OCCO5)C(C)(C)C)ncnc3[nH]2)c1C#N,46 nM and 30 nM (2×) and 20 nM
14,CC(C)[C@@H](Nc1ncnc2[nH]c(C(=O)N[C@@H]3CCN(C)C3)cc12)c1ccc2c(c1)S(=O)(=O)CCC2,65 nM and 66 nM and 72 nM and 58 nM
15,CC(C)[C@@H](Nc1ncnc2[nH]c(C(=O)NCC3(F)CC3)cc12)c1ccc2c(c1)OCCO2,1360 nM and 2020 nM
16,COc1ccc(C(=O)Nc2ccc(C(=O)N[C@@H]3c4ccccc4C[C@@H]3C(=O)O)cc2)cc1S(=O)(=O)NCCN1CCCC1,> 99500 nM
17,COc1ccccc1C[C@@H](Nc1ncnc2[nH]ccc12)C(C)C,97500 nM
18,O=C(O)C[C@@H](NC(=O)c1ncnc2[nH]ccc12)c1ccc(NCC2=NO[C@@H]3COC[C@H]23)cc1,7290 nM and 8330 nM
19,Cc1[nH]c2ncnc(NC(=O)c3ccncc3)c2c1C,> 99500 nM
20,CC(C)[C@H](Nc1ncnc2[nH]nnc12)c1ccc2c(c1)S(=O)(=O)CCC2,> 99500 nM
21,CC(C)[C@@H](NC(=O)Cc1ncnc2[nH]ccc12)c1ccc2c(c1)S(=O)(=O)CCC2,> 99500 nM

row,SMILES,IC50
1,FC(F)(F)CO[C@@H]1CCCN(c2ncnc3[nH]ccc23)C1,> 124000 nM
2,CC(C)[C@H](Nc1ncnc2[nH]cc(C(=O)NC3CC3)c12)c1ccc2c(c1)S(=O)(=O)CCC2,3900 nM and 6460 nM and 4280 nM
3,CC(C)[C@@H](Nc1ccnc2nn[nH]c12)c1ccc2c(c1)S(=O)(=O)CCC2,> 99500 nM
4,CC(C)[C@@H](Nc1ncnc2[nH]ccc12)c1ccc2c(n1)S(=O)(=O)CCC2,1110 nM and 784 nM
5,CC(C)[C@@H](Nc1ncnc2[nH]c(-c3cccc(Cn4ccnc4)c3)cc12)c1ccc2c(c1)OCCO2,> 99500 nM
6,CC(C)[C@@H](NCc1ccc(-n2ccnc2)cc1)c1ccc2c(c1)OCCO2,> 99500 nM
7,O=C(O)[C@H](CC1CCCCC1)Nc1ncnc2[nH]ccc12,92300 nM and 91800 nM
8,CC(C)[C@@H](Nc1ncnc2[nH]c(C(N)=O)cc12)c1ccc2c(c1)OCCO2,453 nM and 466 nM
9,Cc1ncc(CNC(=O)c2cc3c(N[C@@H](c4ccc5c(c4)OCCO5)C(C)C)ncnc3[nH]2)o1,695 nM and 623 nM
10,CNc1nc(C(=O)N[C@@H](Cc2nn[nH]n2)c2ccc(OC)cc2)c2ccnc-2[nH]1,45700 nM and 44700 nM
11,Cc1ccoc1-c1cc2c(N[C@@H](c3ccc4c(c3)OCCO4)C(C)C)ncnc2[nH]1,43900 nM and 39700 nM
12,O[C@@H]1CCCC[C@@H]1Nc1ncnc2[nH]ccc12,> 99500 nM and 95300 nM
13,O=C(O)C[C@@H](NC(=O)c1c[nH]c2ncccc12)c1ccc(Br)cc1,27400 nM and 29000 nM
14,COc1cn[nH]c1NC(=O)c1cc2c(N[C@@H](c3ccc4c(c3)OCCO4)C(C)C)ncnc2[nH]1,72600 nM
15,CC(C)[C@H](Nc1cc(-n2nccn2)ncn1)c1ccc2c(c1)S(=O)(=O)CCC2,> 99500 nM
16,CNS(=O)(=O)c1c[nH]c2ncnc(N[C@@H](c3ccc4c(c3)OCCO4)C(C)C)c12,2570 nM and 2600 nM
17,CC(C)[C@@H](Nc1ncnc2[nH]c(-c3cncc(C(=O)N(C)C)c3)cc12)c1ccc2c(c1)OCCO2,746 nM and 819 nM
18,Cc1cc(-c2cc3c(N[C@@H](c4ccc5c(c4)OCCO5)C(C)C)ncnc3[nH]2)n(C)n1,1070 nM and 1020 nM
19,CC(C)[C@H](Nc1ncncc1-c1nc[nH]n1)c1ccc2c(c1)S(=O)(=O)CCC2,> 99500 nM
20,Cc1[nH]c2ncnc(NC(=O)c3ncn(-c4ccccc4)n3)c2c1C,> 99500 nM
21,CCNC(=O)c1cc2c(N[C@@H](c3ccc4c(c3)S(=O)(=O)CCC4)C3CC3)ncnc2[nH]1,395 nM and 261 nM

# Molecular target: T1, Replicase polyprotein 1ab
# Assay: Functional biochemical assay to identify treatments for viral infectious disease that targets SARS-COV-2 nsp3 macrodomain, whereby the mechanism of action inhibits ADP-Ribose hydrolase activity. Utilizing an enzymatic assay to monitor the conversion of alpha-NAD+ to ADP-Ribose and nicotinamide. ADP-ribose was quantified by LC-MS/MS after precipitation of proteins.
row,SMILES,IC50
1,C[C@H](C(=O)O)[C@@H](NC(=O)c1ncnc2[nH]ccc12)c1ccc(Br)cc1,1340 nM and 1900 nM and 1800 nM
2,CC(C)(C)[C@@H](Nc1ncnc2[nH]c(-c3cnn(CC(N)=O)c3)cc12)c1ccc2c(n1)OCCO2,203 nM
3,CC(C)[C@H](Nc1ncnc2[nH]c(-c3cnn(C)c3C#N)cc12)c1ccc2c(n1)OCCO2,> 4000 nM
4,CNC(=O)c1c[nH]c2ncnc(N[C@H](c3ccc4c(c3)S(=O)(=O)CCC4)C(C)C)c12,246 nM
5,CC(C)[C@@H](Nc1ncnc2[nH]ccc12)c1ccc2c(c1)NC(=O)CO2,2960 nM
6,CNCc1cc(-c2cc3c(N[C@@H](c4ccc5c(c4)S(=O)(=O)CCC5)C(C)C)ncnc3[nH]2)co1,289 nM and 396 nM and 533 nM
7,CC(C)[C@@H](Nc1ncnc2[nH]c(-c3cnn(C)c3C#N)cc12)c1ccc2c(n1)OCCO2,283 nM and 156 nM and 312 nM
8,CC(C)[C@@H](Nc1ncnc2[nH]c(-c3cnn(C)c3)cc12)c1ccc2c(c1)S(=O)(=O)CCC2,328 nM and 264 nM
9,CNC(=O)Cn1cc(-c2cc3c(N[C@@H](c4ccc5c(c4)S(=O)(=O)CCC5)C(C)C)ncnc3[nH]2)cn1,204 nM and 197 nM and 288 nM
10,Cc1nn(C)cc1-c1cc2c(N[C@H](c3ccc4c(c3)S(=O)(=O)CCC4)C(C)C)ncnc2[nH]1,322 nM and 241 nM and 288 nM
11,CC(C)[C@H](Nc1ncnc2[nH]ccc12)c1ccc2c(c1)S(=O)(=O)CCC2,803 nM and 194 nM and 512 nM
12,COc1ccc([C@H](Cc2nnn[nH]2)NC(=O)c2ncnc3[nH]ccc23)cc1,2340 nM and 1490 nM and 1610 nM
13,Cn1ncc(-c2cc3c(N[C@@H](c4ccc5c(n4)OCCO5)C(C)(C)C)ncnc3[nH]2)c1C#N,133 nM and 191 nM and 235 nM
14,CC(C)[C@@H](Nc1ncnc2[nH]c(C(=O)N[C@@H]3CCN(C)C3)cc12)c1ccc2c(c1)S(=O)(=O)CCC2,479 nM and 316 nM and 454 nM

# From ChEMBL document CHEMBL5441456, “ASAP - SARS-CoV-2 nsp3 macrodomain dose response” (2024)
